The source of these data is paper PMC6838683, “Discovery of Human Signaling Systems: Pairing Peptides to G Protein-Coupled Receptors” (Cell, 2019).

Common to all, as to format: cell-based
The target in test [1] is T1, BB3 (Homo sapiens, UniProt P32247).
T1 construct: hIL-2Ra signal peptide (N); expressed in transfected cells
T1 sequence (P32247 2-399 limits assumed): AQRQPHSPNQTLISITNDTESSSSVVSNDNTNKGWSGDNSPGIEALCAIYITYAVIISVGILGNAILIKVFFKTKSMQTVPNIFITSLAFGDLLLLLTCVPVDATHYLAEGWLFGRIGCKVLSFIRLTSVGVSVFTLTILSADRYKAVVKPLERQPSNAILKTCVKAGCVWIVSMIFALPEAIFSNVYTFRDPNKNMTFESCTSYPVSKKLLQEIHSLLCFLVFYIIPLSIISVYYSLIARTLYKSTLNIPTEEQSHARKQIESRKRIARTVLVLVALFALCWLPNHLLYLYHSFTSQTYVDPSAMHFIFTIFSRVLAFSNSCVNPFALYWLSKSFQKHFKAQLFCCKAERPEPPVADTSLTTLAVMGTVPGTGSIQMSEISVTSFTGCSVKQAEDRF
Put plainly: Real-time receptor internalization (TR-FRET), concentration-response. The following applies: pEC50, Internalization (AUC). In general terms: In TR-FRET formats the signal depends on donor and acceptor labels being close together.

In test [2] the target is T1, BB3. Put plainly: Dynamic mass redistribution (DMR), concentration-response. Particulars: pEC50, DMR (peak), BB3; mean, SEM and n.
The target of test [3] is T2, BB3 (Homo sapiens, UniProt P32247).
T2 construct: host or cells: HTLA cells (HEK293-derived)
T2 sequence (P32247 1-399): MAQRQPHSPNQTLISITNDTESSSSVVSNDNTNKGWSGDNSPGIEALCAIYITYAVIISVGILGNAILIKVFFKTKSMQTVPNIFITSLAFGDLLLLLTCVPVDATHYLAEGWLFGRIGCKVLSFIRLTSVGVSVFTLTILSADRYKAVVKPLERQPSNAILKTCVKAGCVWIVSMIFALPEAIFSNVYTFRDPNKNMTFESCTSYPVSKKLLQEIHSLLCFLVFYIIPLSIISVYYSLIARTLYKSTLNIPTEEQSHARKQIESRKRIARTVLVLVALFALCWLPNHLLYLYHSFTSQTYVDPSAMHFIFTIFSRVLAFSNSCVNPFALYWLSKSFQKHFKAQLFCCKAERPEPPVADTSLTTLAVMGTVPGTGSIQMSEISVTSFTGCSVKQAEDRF
Put plainly: β-arrestin recruitment (Tango), validation. Particulars: BB3; mean, SEM and n; read-out: pEC50, Tango (fold over basal) (converted). The method, then: The peptide library was additionally screened against 120 GPCR targets in parallel, including all available orphan receptors and 27 known class A peptide receptors using the Tango assay platform ([Kroeze et al., 2015]). Briefly, HTLA cells (a HEK293 cell line stably expressing a tTA-dependent luciferase reporter and a β-arrestin2-TEV fusion gene) were plated 10,000 cells/well in poly-L-lysine–coated clear-bottom white 384-well plates in DMEM supplemented with 10% FBS, 100 U/ml penicillin and 100 μg/ml streptomycin, 2 μg/ml puromycin and 100 μg/ml hygromycin B. 24 hr later, cells were transfected with Tango GPCR constructs using the calcium phosphate method ([Jordan et al., 1996]). The next day, culture medium was changed to DMEM + 1% dFBS and 10 μM peptides were added for overnight stimulation. Bright-Glo solution (Promega) was incubated for 15–20 min at room temperature, and luminescence was counted using a Trilux luminescence counter (Wallac).
For subsequent peptide validation experiments using Tango assays, HTLA cells were transiently transfected in 10 cm dishes with the receptor of interest using polyethylenimine (PEI) ([Longo et al., 2013]). After 24 hr, 25,000 cells/well were plated in clear bottom, white-walled 384-well plates. Assays were performed as described above, with luminescence measured using an EnSpire 2300 Multimode plate reader (PerkinElmer). Luminescence counts were exported into Excel and were analyzed using GraphPad Prism 7.

In test [4] the target is T3, GPR1 (Homo sapiens, UniProt P46091).
T3 sequence (P46091 1-355): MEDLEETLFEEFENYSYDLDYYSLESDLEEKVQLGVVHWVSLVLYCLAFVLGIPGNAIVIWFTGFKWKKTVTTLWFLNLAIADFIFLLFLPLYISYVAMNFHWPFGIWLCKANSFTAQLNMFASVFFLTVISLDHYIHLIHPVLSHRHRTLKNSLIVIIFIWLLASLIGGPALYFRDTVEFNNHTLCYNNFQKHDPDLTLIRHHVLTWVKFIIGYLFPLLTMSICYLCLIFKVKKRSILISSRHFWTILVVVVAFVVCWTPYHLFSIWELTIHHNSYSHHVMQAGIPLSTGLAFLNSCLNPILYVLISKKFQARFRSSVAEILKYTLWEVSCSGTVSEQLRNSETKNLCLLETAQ
As to the kind of experiment: β-arrestin recruitment (PathHunter). The following applies: GPR1; mean, SEM and n; read-out: pEC50, PathHunter (fold over basal) (converted). The protocol: PathHunter eXpress Assays (DiscoverX) were performed in 384-well format according to the manufacturer’s recommendations. GPR1 cells were incubated with peptides for 90 min and luminescence measured using an EnSpire 2300 Multimode plate reader (PerkinElmer).
(In general: Arrestin recruitment assays detect the binding of arrestin to an activated receptor.)

Test [5] deals with T3, GPR1. As to the kind of experiment: β-arrestin recruitment (Tango), validation. Further details: host or cells: HTLA cells (HEK293-derived). Particulars: pEC50, Tango (fold over basal), GPR1; mean, SEM and n.
Test [6] has as its target T1, BB3. Put plainly: IP1 accumulation (Gq/11), HTRF. Particulars: pEC50, IP1 (nM), BB3; mean, SEM and n.
In test [7] the target is T4, GPR68 (Homo sapiens, UniProt Q15743). As to the kind of experiment: Real-time receptor internalization (TR-FRET), concentration-response. On the set-up: hIL-2Ra signal peptide (N); expressed in transfected cells. Particulars: receptor GPR68; mean, SEM and n (3). The protocol: (§1) 48 hr prior to parallel assaying, SNAP-tagged oGPCR cells were plated (10,000 cells/well) in fibronectin-coated 384-well Epic biosensor microplates (Corning) and poly-D-lysine coated white 384-well plates (for internalization assays). SNAP- GLP-1 receptor was plated alongside orphan receptor cells as an internal assay control for internalization assays. Receptor-expression was induced with 0.1 μg/ml doxycycline.
T4 sequence (Q15743 2-365 limits assumed): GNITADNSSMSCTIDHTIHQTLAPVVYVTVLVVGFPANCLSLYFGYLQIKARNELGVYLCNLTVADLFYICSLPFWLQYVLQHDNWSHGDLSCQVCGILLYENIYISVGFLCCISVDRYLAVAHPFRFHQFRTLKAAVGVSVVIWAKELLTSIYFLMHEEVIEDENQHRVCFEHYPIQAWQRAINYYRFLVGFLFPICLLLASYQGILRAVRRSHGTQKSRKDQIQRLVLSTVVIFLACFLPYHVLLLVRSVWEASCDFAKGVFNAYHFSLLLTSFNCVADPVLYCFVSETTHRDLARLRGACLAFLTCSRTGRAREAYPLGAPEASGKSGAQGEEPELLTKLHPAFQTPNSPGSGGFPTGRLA
A TR-FRET real-time internalization assay was used to examine peptide-dependent changes in orphan receptor localization as described previously ([Foster and Bräuner-Osborne, 2018]). Surface-expressed SNAP-tagged receptors were labeled with a cell-impermeable luminescent terbium cryptate (100 nM SNAP Lumi4-Tb; Cisbio, France) for 1 hr at 37°C. Cells were washed to remove excess terbium and incubated with fluorescein-O-acetic acid (100 μM; Sigma Aldrich) for 5 min at 37°C. Peptides were added as for DMR assays, and internalization responses were recorded for 60 min at 37°C using an EnVision 2104 Multimode plate reader (PerkinElmer). 100 nM GLP-1 was used as a positive control for SNAP-GLP1R internalization. Real-time internalization responses were calculated based on TR-FRET (excitation 340 nm; emission 520 nm and 615 nm), and were expressed as the ratio between donor (terbium) and acceptor (fluorescein) emission. For peptide screening analysis (both DMR and internalization assays), we calculated the area under the curve from the real-time traces. As the magnitude of the responses was variable between orphan receptor targets, particularly for the SNAP-tag based internalization assay where the signal is dependent on receptor surface expression, the AUC values were normalized to their respective plate averages and expressed as fold change. Validation experiments for receptor internalization were performed as above. Internalization data was processed in MS-Excel and area under the curve was used to generate concentration-response curves using GraphPad Prism 7.0. Data represent mean ± standard error of the mean (SEM) from at least 3 biologically independent experiments.

In test [8] the target is T4, GPR68. Put plainly: Dynamic mass redistribution (DMR), concentration-response. Further details: hIL-2Ra signal peptide (N); expressed in transfected cells. Particulars: receptor GPR68; mean, SEM and n (3-4). The protocol: as §1
DMR assays provide a single integrated readout of ligand-dependent cellular response, utilizing an optical biosensor in specialized microplates to detect wavelength shifts of reflected light as it passes through the biosensor and the lower portion of the cell (∼150-200 nm). As a signal pathway agnostic approach, DMR assays are well-suited to the study of GPCRs ([Fang et al., 2008], [Schröder et al., 2011]). The mass redistribution response (Δ picometer (pm)) likely reflects a number of intracellular events, including cytoskeletal rearrangement, protein trafficking and receptor internalization. Orphan receptor-expressing cells were gently washed twice with assay buffer (HBSS with 1 mM CaCl2, 1 mM MgCl2, 20 mM HEPES, 0.01% pluronic F-68, pH 7.4) containing 0.1% DMSO and cells were equilibrated for 90 min at 22°C in the EPIC Benchtop (BT) System (Corning) to establish a stable DMR signal. After 3-5 min baseline recordings, peptides (10 μM) were added in duplicate wells using an electronic 384-channel Viaflo pipette (Integra Biosciences, Switzerland) and DMR responses were measured for 60 min at 22°C. 100 nM norepinephrine was included as an internal assay control to assess the cellular DMR response via endogenously-expressed adrenoceptors in the TREx 293 cells. Real-time data were processed using the BT to column converter MS-Excel macro (Corning) and analyzed in GraphPad Prism 7.0. DMR recordings in peptide screening experiments were buffer and solvent corrected and the area under the curve (AUC) was quantified. For subsequent validation experiments, peptides were diluted in assay buffer containing 0.1% DMSO and DMR assays were performed as above. […] Data represent mean ± standard error of the mean (SEM) from at least 3 biologically independent experiments.

`CSCC[C@H](NC(=O)[C@H](CC(C)C)NC(=O)[C@H](Cc1c[nH]cn1)NC(=O)CNC(=O)[C@@H](NC(=O)[C@H](C)NC(=O)[C@H](Cc1c[nH]c2ccccc12)NC(=O)[C@H](Cc1c[nH]cn1)NC(=O)[C@H](CC(N)=O)NC(=O)CNC(=O)[C@H](CCCN=C(N)N)NC(=O)[C@@H]1CCCN1C(=O)[C@H](Cc1ccc(O)cc1)NC(=O)[C@H](CCSC)NC(=O)[C@H](CCCCN)NC(=O)[C@@H](NC(=O)[C@H](CC(C)C)NC(=O)[C@@H](NC(=O)[C@@H](NC(=O)CNC(=O)CNC(=O)CNC(=O)[C@H](C)NC(=O)[C@@H]1CCCN1C(=O)[C@H](CC(C)C)NC(=O)[C@@H]1CCCN1C(=O)[C@@H](N)C(C)C)[C@@H](C)O)C(C)C)[C@@H](C)O)C(C)C)C(N)=O` [Gastrin-releasing peptide (GRP)]: the EC50 at BB3 [1] is 14.8 µM; on BB3 [2], 2.04 µM; at BB3 [3], 43.7 µM; at GPR1 [4] it was 0.398 µM; on GPR1 [5] it was 5.5 µM; on BB3 [6] it was 447 nM.
For RFGIPMDRIGRNRLSNSRG [128 original], the “Internalization assays Emax (AUC)” value on GPR68 [7] is given as 8.3. On GPR68 [8], the “DMR assays Emax (peak or AUC)” value amounted to 893047.
